Experimental data taken from paper PMC4841536, “Characterization of the Anti-HCV Activities of the New Cyclophilin Inhibitor STG-175” (PLoS ONE, 2016).
“And” between values parts separate entries of the source, which are not always exact repeats. Identical values can stand only once. Like-named read-outs stand apart in the source and are kept apart here.

Columns and labels:
Type in all cases: cell-based, hepatitis C virus
[1] = test system: subgenomic Con1 (GT1b) replicon in Huh-7 cells; details: for passage at which resistant variants emerged (CypI comparison): Fig 3C
Method: Huh-7 cell expressing subgenomic Con1 (GT1b) replicon were seeded in a 10 cm dish at a density of 3 × 10^5 cells per culture flask in complete DMEM (with G418) with STG-175 or selected drugs. Cells were grown until they reached 90% confluence, trypsinized and re-seeded at the same cell concentration in a new 10-cm dish with the same drug concentration. Cells were passaged 22 times in the presence of drugs. At each passage, sample of cells were collected, RNA extracted according to the manufacturer's instructions and analyzed by RT-PCR for HCV RNA levels.
(§1) Fig 3 Replicon clearance, replication rebound and resistance analyses. […] Then drugs were removed to allow viral replication rebound to occur. At each passage, samples of cells were collected, RNA extracted and analyzed by RT-PCR for HCV RNA levels. B. Emergence of resistance: Con1 replicon Huh-7 cells were passaged 22 times in the absence or presence of STG-175 or selected DAAs. At each passage, sample of cells were collected, RNA extracted and analyzed by RT-PCR for HCV RNA levels. C. […] Data are expressed as number of HCV RNA copies per cell. […] Data are expressed as mean of relative light units and calculated EC50s are presented. […] E. Degree of resistance of D320E and Y321N Con1 variants: Left panel. Wild-type (WT), D320E and D320/Y321N NS5A Con1 RNA were electroporated into Huh7.5.1 cells and replication monitored over 8 days by quantifying the levels of intracellular HCV RNA. Right panel. Same as just above except that increasing concentrations of STG-175 were added at the time of the electroporation. […] STG-175 is taken as the substance from the printed x-axis title 'STG-175 in Log nM'.
We then examined the development of resistance to STG-175. GT1b Con1 sub-genomic replicon cells were grown in the presence of STG-175 (0.25 and 1 μM), telaprevir (2.5 and 10 μM), boceprevir (2.5 and 10 μM), daclatasvir 100 pM and 1 nM) or a combination of STG-175 (0.25 μM) with either telaprevir (2.5 μM), boceprevir (2.5 μM) or daclatasvir (100 pM) for 22 successive passages. At each passage, fresh drug was added and a sample of cells was taken to quantify HCV RNA levels by RT-qPCR.

[2] = test system: D320E/Y321N NS5A Con1 GT1b replicon; experiment: microbe, parasite or virus in culture; details: for EC50: Hepatitis C virus, GT1B
Description: (§2) The GT1b subgenomic firefly luciferase reporter replicon pFK-I389/NS3–3 was provided by R. Bartenschlager. The GT1B subgenomic NS3, NS5A and NS5B mutants were created via homologous recombination using the In-Fusion HD Cloning kit (Clontech) as we described previously. […] The in vitro transcription of wild-type and mutant Con1 RNA was accomplished using the T7 MEGAscript kit (Ambion) by following the manufacturer’s instructions. In vitro-transcribed RNAs were introduced into Huh7.5.1 cells by electroporation. Trypsinized cells were washed twice and resuspended in phosphate-buffered saline (PBS) (calcium-free and magnesium-free) at 1x 10^7 cells per ml. Ten micrograms of RNA for each mutant was mixed with 0.4 mL of cells in a 4-mm cuvette, and a Bio-Rad Gene Pulser system was used to deliver a single pulse at 0.27 kV, 100 ohms, and 960 μF. Cells were then plated in 12-well dishes. RNA transfection efficiency and HCV subgenomic replication were assessed by reverse transcription-quantitative PCR (RT-qPCR) and presented as genome equivalents (GE) per microgram of total RNA as described previously. We measured by RT-qPCR the replication of wild-type, STG-175-, NS5Ai-, NS3i- and NS5Bi-resistant mutants in the presence of increasing concentrations of SGT-175, daclatasvir, telaprevir, boceprevir and sofosbuvir over a period of 8 days.
(§3) D320E and D320E/Y321N NS5A substitutions were introduced into wild-type Con1 GT1 replicon as we described previously. Con1-NS5A-D320E, and Con1-NS5A-D320E/Y321N were generated using the following forward and reverse phosphorylated (p) primer sets, respectively: (p)[…] and (p)[…], and (p)[…] and (p)[…]. PCR products were circularized with Quick T4 DNA ligase (NEB) for 5 min and transformed into NEB 10-beta competent cells. The NS5A gene was sequenced to confirm the introduced substitutions.
as §1
(§4) To determine whether the D320E and Y321N substitutions truly render HCV resistant to STG-175, they were introduced into wild-type Con1 replicon as we described previously. Introduction of the substitutions was verified by sequencing.

[3] = test system: D320E NS5A Con1 GT1b replicon; experiment: microbe, parasite or virus in culture; details: for EC50: Hepatitis C virus, GT1B
Description: as §2, §3, §1, §4

With `CC=CCC(C)C(O)C1C(=O)NC(CC)C(=O)N(C)C(CSCCCCO)C(=O)N(C)C(CC(C)(C)O)C(=O)NC(C(C)C)C(=O)N(C)C(CC(C)C)C(=O)NC(C)C(=O)NC(C)C(=O)N(C)C(CC(C)C)C(=O)N(C)C(CC(C)C)C(=O)N(C)C(C(C)C)C(=O)N1C` (stereo not drawn) [STG-175] the “cell culture passages required to detect emergence of resistant replicon colonies” value [1] was over 16 passages, the “passage at which resistant variants emerged (CypI comparison)” value ([1]; 0.25 μM of drug selection) was 18 passage and the “passage at which resistance began” value ([1]; 1 μM drug pressure, first account (Fig 3B)) was 19 passage. For the same compound, the “passage at which resistant variants emerged (CypI comparison)” value ([1]; 1 μM of drug selection) was 21 passage, the EC50 ([2]; Huh-7.5.1, 144 h, read-out: EC50, D320E/Y321N replicon) was 75 nM and the EC50 ([2]; Huh-7.5.1, 192 h, read-out: EC50, D320E/Y321N replicon) was 102 nM. For the same compound, the EC50 ([2]; Huh-7.5.1, 192 h, read-out: EC50 D320E/Y321N NS5A) was 77.9 nM, the “fold more resistant than wild-type replicon, D320E/Y321N” value ([2]; day 6) was 2.1 fold and the “fold more resistant than wild-type replicon, D320E/Y321N” value ([2]; day 8) was 2.9 fold. The “fold resistance conferred by NS5A D320E and Y321N substitutions (summary)” value ([2]; variants emerged under STG-175 pressure) was ~ 2 fold and 2-3 fold, the EC50 ([3]; Huh-7.5.1, 144 h, read-out: EC50, D320E replicon) was 61.6 nM and the EC50 ([3]; Huh-7.5.1, 192 h, read-out: EC50, D320E replicon) was 83.2 nM. The EC50 ([3]; Huh-7.5.1, 192 h, read-out: EC50 D320E NS5A) was 62.8 nM, the “fold more resistant than wild-type replicon, D320E” value ([3]; day 6) was 1.7 fold and the “fold more resistant than wild-type replicon, D320E” value ([3]; day 8) was 2.4 fold.
